Test results taken from patent US9399646B2 (Genentech, Inc., priority 2010, dated 2016).

Tests used:
[1] = test system: MCF-7 cells; assay: Breast cancer cell viability assay (CellTiter-Glo, 5 days); format: cell-based; conditions: 5 days' compound exposure; for IC50: Homo sapiens, MCF7, 120 h
In short: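 MCF-7 cells, 320 per well in RPMI with 10% FBS and 20 mM HEPES, adhered overnight, then exposed 5 days to an eleven-point semilog dilution (final 0.3-0.000003 μM). CellTiter-Glo luminescence read; % viability = (sample − cell-free background)/(untreated − background) × 100.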

[2] = target: T1, ER-α in MCF-7 cells (Homo sapiens, UniProt P03372); assay: Breast cancer cell ER-α in cell western assay (SP1); format: cell-based; design: endogenous in cells; host or cells: MCF-7; conditions: 4 or 24 hr post compound addition; for Emax: MCF7, SP1 antibody, read-out: ER-α In Cell Western Assay (SP1) Max Response; for DC50: SP1 antibody, read-out: ER-α In Cell Western Assay (SP1) IC50
T1 sequence (P03372 1-595): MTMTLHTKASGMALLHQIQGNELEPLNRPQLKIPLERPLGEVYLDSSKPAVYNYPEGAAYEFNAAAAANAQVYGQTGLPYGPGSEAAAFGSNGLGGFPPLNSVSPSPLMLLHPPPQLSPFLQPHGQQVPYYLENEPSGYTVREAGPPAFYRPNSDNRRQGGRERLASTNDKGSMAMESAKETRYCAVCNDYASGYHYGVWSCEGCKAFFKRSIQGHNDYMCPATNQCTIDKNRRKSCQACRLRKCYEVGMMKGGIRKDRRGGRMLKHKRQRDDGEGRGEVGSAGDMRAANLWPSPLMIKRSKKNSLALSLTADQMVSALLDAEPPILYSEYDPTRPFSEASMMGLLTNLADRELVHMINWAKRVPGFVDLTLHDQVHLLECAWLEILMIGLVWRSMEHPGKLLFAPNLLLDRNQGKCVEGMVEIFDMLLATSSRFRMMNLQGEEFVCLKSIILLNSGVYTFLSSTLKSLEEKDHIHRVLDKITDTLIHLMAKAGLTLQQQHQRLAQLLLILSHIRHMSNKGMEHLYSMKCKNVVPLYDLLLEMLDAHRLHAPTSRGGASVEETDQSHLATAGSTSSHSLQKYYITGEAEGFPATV
In short: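 Percent remaining ER: SP1 immunofluorescence normalized to DRAQ5 nuclear stain, compared with untreated controls. Treatment lasted 4 or 24 hr across 0.3–0.000003 μM final in MCF-7.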

Row | Compound | MCF7 Viability Assay Max Response [1] | IC50 [1] | Emax [2] | DC50 [2]
1 | CC/C(=C(/c1ccc(/C=C/C(=O)NS(C)(=O)=O)cc1)c1ccc2c(cnn2C)c1)c1ccc(F)cc1Cl [Compound 424, (E)-3-(4-((E)-2-(2-Chloro-4-fluorophenyl)-1-(1-methyl-1H-indazol-5-yl)but-1-en-1-yl)phenyl)-N-(methylsulfonyl)acrylamide] | ++ (++ = a single % value ≧ 40%) | > 100 nM | ≥ 40% | ≤ 100 nM
2 | O=C(O)/C=C/c1ccc(/C(=C(\c2ccccc2)C2CC2)c2cccc3[nH]ncc23)cc1 [Compound 70, (E)-3-(4-((E)-2-Cyclopropyl-1-(1H-indazol-4-yl)-2-phenylvinyl)phenyl)acrylic acid] | ++ (++ = a single % value ≧ 40%) | ≤ 100 nM | ≥ 40% | ≤ 100 nM
3 | CNC(=O)/C=C/c1ccc(/C(=C(\c2ccccc2)C2CCC2)c2ccc3[nH]ncc3c2)cc1 [Compound 412, (E)-3-(4-((E)-2-Cyclobutyl-1-(1H-indazol-5-yl)-2-phenylvinyl)phenyl)-N-methylacrylamide] | ++ (++ = a single % value ≧ 40%) | ≤ 100 nM | ≥ 40% | ≤ 100 nM
4 | CC/C(=C(/c1ccc(/C=C/C(=O)O)cc1)c1ccc2cn[nH]c2c1)c1ccccc1 [Compound 5, (E)-3-(4-((E)-1-(1H-Indazol-6-yl)-2-phenylbut-1-en-1-yl)phenyl)acrylic acid] | ++ (++ = a single % value ≧ 40%) | > 100 nM | ≥ 40% | –
5 | CC/C(=C(/c1ccc(/C=C/C(=O)O)cc1)c1ccc2scnc2c1)c1ccc(F)cc1C [Compound 282, (E)-3-(4-((E)-1-(Benzo[d]thiazol-5-yl)-2-(4-fluoro-2-methylphenyl)but-1-en-1-yl)phenyl)acrylic acid] | ++ (++ = a single % value ≧ 40%) | ≤ 100 nM | ≥ 40% | ≤ 100 nM
6 | CC/C(=C(/c1ccc(/C=C/C(=O)O)cc1)c1ccc2c(c1)OCO2)c1ccccc1 [Compound 128, (E)-3-(4-((E)-1-(Benzo[d][1,3]dioxol-5-yl)-2-phenylbut-1-en-1-yl)phenyl)acrylic acid] | ++ (++ = a single % value ≧ 40%) | > 100 nM | ≥ 40% | > 100 nM
7 | CC/C(=C(/c1ccc(/C=C/C(=O)O)cc1)c1ccc2nccn2c1)c1ccccc1C [Compound 129, (E)-3-(4-((E)-1-(Imidazo[1,2-a]pyridin-6-yl)-2-(o-tolyl)but-1-en-1-yl)phenyl)acrylic acid] | ++ (++ = a single % value ≧ 40%) | > 100 nM | ≥ 40% | ≤ 100 nM
8 | CC/C(=C(/c1ccc(/C=C/C(=O)O)cc1)c1ccc2[nH]ncc2c1)c1cccc(OCC(=O)O)c1 [Compound 347, (E)-3-(4-((E)-2-(3-(Carboxymethoxy)phenyl)-1-(1H-indazol-5-yl)but-1-en-1-yl)phenyl)acrylic acid] | + (+ = a single % value < 40%) | > 100 nM | < 40% | > 100 nM
9 | CC/C(=C(/c1ccc(/C=C/c2nn[nH]n2)cc1)c1ccc2[nH]ncc2c1)c1ccccc1Cl [Compound 443, 5-((E)-1-(4-((E)-2-(2H-Tetrazol-5-yl)vinyl)phenyl)-2-(2-chlorophenyl)but-1-en-1-yl)-1H-indazole] | ++ (++ = a single % value ≧ 40%) | ≤ 100 nM | ≥ 40% | ≤ 100 nM
10 | CC/C(=C(/c1ccc(/C=C/C(=O)O)cc1)c1ccc2nccn2c1)c1ccccc1 [Compound 126, (E)-3-(4-((E)-1-(Imidazo[1,2-a]pyridin-6-yl)-2-phenylbut-1-en-1-yl)phenyl)acrylic acid] | ++ (++ = a single % value ≧ 40%) | > 100 nM | ≥ 40% | ≤ 100 nM
11 | CC/C(=C(/c1ccc(/C=C/C(=O)Nc2nn[nH]n2)cc1)c1ccc2[nH]ncc2c1)c1ccc(F)cc1Cl [Compound 425, (E)-3-(4-((E)-2-(2-Chloro-4-fluorophenyl)-1-(1H-indazol-5-yl)but-1-en-1-yl)phenyl)-N-(2H-tetrazol-5-yl)acrylamide] | ++ (++ = a single % value ≧ 40%) | ≤ 100 nM | ≥ 40% | ≤ 100 nM
12 | CC/C(=C(/c1ccc(CCC(=O)O)cc1)c1ccc2[nH]ncc2c1)c1ccccc1 [Compound 338, (E)-3-(4-(1-(1H-Indazol-5-yl)-2-phenylbut-1-en-1-yl)phenyl)propanoic acid] | ++ (++ = a single % value ≧ 40%) | > 100 nM | ≥ 40% | ≤ 100 nM
13 | CC/C(=C(/c1ccc(/C=C/C(=O)O)cc1)c1ccc2ncccc2c1)c1ccc(F)cc1 [Compound 118, (E)-3-(4-((E)-2-(4-Fluorophenyl)-1-(quinolin-6-yl)but-1-en-1-yl)phenyl)acrylic acid] | ++ (++ = a single % value ≧ 40%) | > 100 nM | ≥ 40% | > 100 nM
14 | CCOC(=O)/C=C/c1ccc(/C(=C(/CC)c2ccccc2)c2ccc3cn[nH]c3c2)cc1 [Compound 172, (E)-Ethyl 3-(4-((E)-1-(1H-indazol-6-yl)-2-phenylbut-1-en-1-yl)phenyl)acrylate] | + (+ = a single % value < 40%) | ≤ 100 nM | ≥ 40% | > 100 nM
15 | CC/C(=C(/c1ccc(/C=C/C(=O)O)cc1)c1cc(F)c2[nH]ncc2c1)c1ccncc1Cl [Compound 245, (E)-3-(4-((E)-2-(3-chloropyridin-4-yl)-1-(7-fluoro-1H-indazol-5-yl)but-1-en-1-yl)phenyl)acrylic acid] | ++ (++ = a single % value ≧ 40%) | ≤ 100 nM | ≥ 40% | ≤ 100 nM
16 | CC/C(=C(/c1ccc(/C=C/C(=O)O)cc1)c1ccc2[nH]ncc2c1)c1ccc2occc2c1 [Compound 247, (E)-3-(4-((E)-2-(Benzofuran-5-yl)-1-(1H-indazol-5-yl)but-1-en-1-yl)phenyl)acrylic acid] | ++ (++ = a single % value ≧ 40%) | ≤ 100 nM | ≥ 40% | ≤ 100 nM
17 | Cc1cscc1/C(=C(\c1ccc(/C=C/C(=O)O)cc1)c1ccc2[nH]nc(F)c2c1)C1CCC1 [Compound 313, (E)-3-(4-((E)-2-Cyclobutyl-1-(3-fluoro-1H-indazol-5-yl)-2-(4-methylthiophen-3-yl)vinyl)phenyl)acrylic acid] | ++ (++ = a single % value ≧ 40%) | ≤ 100 nM | ≥ 40% | ≤ 100 nM
18 | CC/C(=C(/c1ccc(/C=C/C(=O)O)cc1)c1ccc2[nH]ncc2c1)c1cccc(Oc2ccccn2)c1 [Compound 362, (E)-3-(4-((E)-1-(1H-Indazol-5-yl)-2-(3-(pyridin-2-yloxy)phenyl)but-1-en-1-yl)phenyl)acrylic acid] | ++ (++ = a single % value ≧ 40%) | ≤ 100 nM | ≥ 40% | ≤ 100 nM
19 | CC/C(=C(/c1ccc(/C=C/C(=O)O)cc1)c1cc(F)c2[nH]ncc2c1)c1cc[n+]([O-])cc1Cl [Compound 453, 4-((E)-1-(4-((E)-2-Carboxyvinyl)phenyl)-1-(7-fluoro-1H-indazol-5-yl)but-1-en-2-yl)-3-chloropyridine-1-oxide] | ++ (++ = a single % value ≧ 40%) | > 100 nM | ≥ 40% | > 100 nM
20 | CC/C(=C(/c1ccc(/C=C/C(=O)O)cc1)c1ccc2[nH]ncc2c1)c1ccc2c(c1)OCO2 [Compound 240, (E)-3-(4-((E)-2-(Benzo[d][1,3]dioxol-5-yl)-1-(1H-indazol-5-yl)but-1-en-1-yl)phenyl)acrylic acid] | ++ (++ = a single % value ≧ 40%) | ≤ 100 nM | ≥ 40% | ≤ 100 nM
21 | CC/C(=C(/c1ccc(/C=C/c2noc(=S)[nH]2)cc1)c1ccc2[nH]ncc2c1)c1ccccc1 [Compound 440, 3-((E)-4-((E)-1-(1H-Indazol-5-yl)-2-phenylbut-1-en-1-yl)styryl)-1,2,4-oxadiazole-5(4H)-thione] | + (+ = a single % value < 40%) | ≤ 100 nM | ≥ 40% | ≤ 100 nM
